# Test results: PMC10066365, “Nemacol is a small molecule inhibitor of C. elegans vesicular acetylcholine transporter with anthelmintic potential” (Nature Communications, 2023)
# Several values for one entry are separate records, joined by “and”; a condition that tells them apart may be missing. Identical values can stand only once. Entries after “also recorded” stand apart in the source; their conditions may differ.
# Test system: C. elegans
# Assay: C. elegans motor phenotype scoring on solid media (Punc/jerky-unc, coiled, paralyzed), wild-type young adults
# Type: in vivo, Caenorhabditis elegans
# Conditions: for C1 (number of animals scored) / C2 (number of animals scored) / Fraction Coiled, AVERAGES / Fraction Paralyzed, AVERAGES / Fraction Punc, AVERAGES / NP (number of animals scored) / P (number of animals scored) / Punc (number of animals scored) / Fraction Coiled / Fraction Paralyzed / Fraction Punc / Next Day: Animals alive (moving fine): adults; for Fraction Coiled / Fraction Paralyzed / Fraction Punc: single experiment
# [1] = 60uM, one hour, young adults, 20 animals per trial, single replicate counts
compound,measurement,setting,value
O=[N+]([O-])c1ccc(N2CCN(CC3CC4C=CC3C4)CC2)cc1 (centres unmarked) [Nemacol-3],C1 (number of animals scored),"30 μM, 120 min",0
same,C2 (number of animals scored),"30 μM, 120 min",0
same,"Fraction Coiled, AVERAGES","30 μM, 120 min",0.0
same,"Fraction Paralyzed, AVERAGES","30 μM, 120 min",0.0
same,"Fraction Punc, AVERAGES","30 μM, 120 min",0.0741
same,NP (number of animals scored),"30 μM, 120 min",17 and 16
same,P (number of animals scored),"30 μM, 120 min",0
same,Punc (number of animals scored),"30 μM, 120 min",1 and 2
same,Fraction Coiled,"30 μM, 120 min",0.0
same,Fraction Paralyzed,"30 μM, 120 min",0.0
same,Fraction Punc,"30 μM, 120 min",0.0556 and 0.111
same,C1 (number of animals scored),"30 μM, 240 min",0
same,C2 (number of animals scored),"30 μM, 240 min",0
same,"Fraction Coiled, AVERAGES","30 μM, 240 min",0.0
same,"Fraction Paralyzed, AVERAGES","30 μM, 240 min",0.0
same,"Fraction Punc, AVERAGES","30 μM, 240 min",0.0
same,NP (number of animals scored),"30 μM, 240 min",18
same,P (number of animals scored),"30 μM, 240 min",0
same,Punc (number of animals scored),"30 μM, 240 min",0
same,Fraction Coiled,"30 μM, 240 min",0.0
same,Fraction Paralyzed,"30 μM, 240 min",0.0
same,Fraction Punc,"30 μM, 240 min",0.0
same,C1 (number of animals scored),"30 μM, 360 min",0
same,C2 (number of animals scored),"30 μM, 360 min",0
same,"Fraction Coiled, AVERAGES","30 μM, 360 min",0.0
same,"Fraction Paralyzed, AVERAGES","30 μM, 360 min",0.0
same,"Fraction Punc, AVERAGES","30 μM, 360 min",0.0
same,NP (number of animals scored),"30 μM, 360 min",18
same,P (number of animals scored),"30 μM, 360 min",0
same,Punc (number of animals scored),"30 μM, 360 min",0
same,Fraction Coiled,"30 μM, 360 min",0.0
same,Fraction Paralyzed,"30 μM, 360 min",0.0
same,Fraction Punc,"30 μM, 360 min",0.0
same,Next Day: Animals alive (moving fine),30 μM,"alive, recovered; also recorded: alive, recoveed"
same,C1 (number of animals scored),"60 μM, 30 min",0
same,C2 (number of animals scored),"60 μM, 30 min",0
same,"Fraction Coiled, AVERAGES","60 μM, 30 min",0.0
same,"Fraction Paralyzed, AVERAGES","60 μM, 30 min",0.0
same,"Fraction Punc, AVERAGES","60 μM, 30 min",0.667
same,NP (number of animals scored),"60 μM, 30 min",8 and 6 and 4
same,P (number of animals scored),"60 μM, 30 min",0
same,Punc (number of animals scored),"60 μM, 30 min",10 and 12 and 14
same,Fraction Coiled,"60 μM, 30 min",0.0
same,Fraction Paralyzed,"60 μM, 30 min",0.0
same,Fraction Punc,"60 μM, 30 min",0.556 and 0.667 and 0.8
same,C1 (number of animals scored),"60 μM, 60 min",0
same,C2 (number of animals scored),"60 μM, 60 min",0
same,"Fraction Coiled, AVERAGES","60 μM, 60 min",0.0
same,"Fraction Paralyzed, AVERAGES","60 μM, 60 min",0.0
same,"Fraction Punc, AVERAGES","60 μM, 60 min",0.741
same,NP (number of animals scored),"60 μM, 60 min",5 and 3 and 6
same,P (number of animals scored),"60 μM, 60 min",0
same,Punc (number of animals scored),"60 μM, 60 min",13 and 15 and 12
same,Fraction Coiled,"60 μM, 60 min",0.0
same,Fraction Paralyzed,"60 μM, 60 min",0.0
same,Fraction Punc,"60 μM, 60 min",0.8 and 0.667
same,C1 (number of animals scored),"60 μM, 90 min",0
same,C2 (number of animals scored),"60 μM, 90 min",0
same,"Fraction Coiled, AVERAGES","60 μM, 90 min",0.0
same,"Fraction Paralyzed, AVERAGES","60 μM, 90 min",0.0
same,"Fraction Punc, AVERAGES","60 μM, 90 min",0.463
same,P (number of animals scored),"60 μM, 90 min",0
same,Fraction Coiled,"60 μM, 90 min",0.0
same,Fraction Paralyzed,"60 μM, 90 min",0.0
same,C1 (number of animals scored),"60 μM, 120 min",0
same,C2 (number of animals scored),"60 μM, 120 min",0
same,"Fraction Coiled, AVERAGES","60 μM, 120 min",0.0
same,"Fraction Paralyzed, AVERAGES","60 μM, 120 min",0.0
same,"Fraction Punc, AVERAGES","60 μM, 120 min",0.259
same,NP (number of animals scored),"60 μM, 120 min",10 and 15
same,P (number of animals scored),"60 μM, 120 min",0
same,Fraction Coiled,"60 μM, 120 min",0.0
same,Fraction Paralyzed,"60 μM, 120 min",0.0
same,C1 (number of animals scored),"60 μM, 240 min",0
same,C2 (number of animals scored),"60 μM, 240 min",0
same,"Fraction Coiled, AVERAGES","60 μM, 240 min",0.0
same,"Fraction Paralyzed, AVERAGES","60 μM, 240 min",0.0
same,"Fraction Punc, AVERAGES","60 μM, 240 min",0.037
same,NP (number of animals scored),"60 μM, 240 min",18 and 16
same,P (number of animals scored),"60 μM, 240 min",0
same,Fraction Coiled,"60 μM, 240 min",0.0
same,Fraction Paralyzed,"60 μM, 240 min",0.0
same,Fraction Punc,"60 μM, 240 min",0.0
same,C1 (number of animals scored),"60 μM, 360 min",0
same,C2 (number of animals scored),"60 μM, 360 min",0
same,"Fraction Coiled, AVERAGES","60 μM, 360 min",0.0
same,"Fraction Paralyzed, AVERAGES","60 μM, 360 min",0.0
same,"Fraction Punc, AVERAGES","60 μM, 360 min",0.0
same,NP (number of animals scored),"60 μM, 360 min",18
same,P (number of animals scored),"60 μM, 360 min",0
same,Punc (number of animals scored),"60 μM, 360 min",0
same,Fraction Coiled,"60 μM, 360 min",0.0
same,Fraction Paralyzed,"60 μM, 360 min",0.0
same,Fraction Punc,"60 μM, 360 min",0.0
same,Next Day: Animals alive (moving fine),60 μM,"alive, recovered; also recorded: alive recovered"
same,"any phene, mean % fraction of young adults exhibiting any phenotype (coiled, jerky-Unc or paralyzed)","60uM, one hour, mean of three biological replicates",95.8333%
same,atypical locomotion (number of animals),[1],5 and 8 and 9 and 7 and 0 and 4
same,coiled (number of animals),[1],8 and 6 and 10
same,no phene (number of animals),[1],0 and 2 and 3
same,paralyzed (number of animals),[1],7 and 6 and 1 and 4 and 10 and 8
same,EC50,"Caenorhabditis elegans, 1 h, Fig. 1, dose-response at 60 min, wild-type young adults, +/- 95% CI, read-out: EC50",24.5 ± 6.1 µM
